According to patent US4178380A, “Benzopyrancarboxamides” (Shell Oil Company, priority 1978, dated 1979):

Tests used:
swine adipose tissue = test: inhibition of lipogenesis (incorporation of radioactive glucose into lipid) in pig adipose tissue slices; type: cell-based, pig (swine); conditions: Sus scrofa, glucose-U-14C, 100 micrograms per milliliter, 37° C., 2 hours, vs control, read-out: Percent Inhibition of lipogenesis
From the text: (§1) The manner in which they cause this effect is not known with certainty; it is believed that they interfere with the synthesis of fatty acids in the tissues. Their effectiveness for this purpose has been ascertained by immersing samples of mammalian liver or adipose tissue in a liquid medium containing radioactive glucose and the test chemical for a period of time, then isolating the lipid from the treated tissue and determining the incorporation of the radioactive carbon into the lipid by means of scintillation counting techniques. These tests were conducted with both liver and adipose tissues, because in some animals the primary site of lipogenesis appears to be liver tissue, while in others it appears to be adipose tissue. The test animals were pigs, sheep, rabbits, cats and dogs.
Described in more detail, the tests were conducted according to the following general procedure:
Tissue slices (200 milligrams for liver; 150 milligrams for adipose tissue) were incubated, at 37° C. for 2 hours with shaking in 3 milliliters of Krebs-Ringer bicarbonate solution containing one-half the normal calcium ion concentration, 60 micromoles of glucose, 0.5 micro-Curie of glucose-U-^14 C, 300 microunits of insulin, and 5% dimethyl sulfoxide (DMSO). The test compounds were added as a solution or a suspension in DMSO and were present at a concentration of 100 micrograms per milliliter of the incubation mixture.
The incubation was terminated by addition of 0.25 milliliter of 1 N sulfuric acid. The incubation mixture was extracted with a total of 25 milliliters of chloroform:methanol (2:1, v/v). The extracts were washed according to Folch et al. (J. Biol. Chem., 226, 497-509, (1957)), air dried, and counted in a liquid scintillation counter with 15 milliliters of counting fluid (two parts toluene containing 0.4% w/v New England Nuclear Omnifluor: 1 part Triton X-100). The tests were conducted in triplicate and were accompanied by control tests in which all ingredients,proportions and conditions were the same except that no test compound was included. From the data obtained was calculated the percent inhibition of lipid synthesis by the test compound in each case.
Compound 2 was tested with respect to all of the animals. The other six compounds were tested only with respect to the pig.
From these and other tests, it was established that in pigs there is little lipogenic activity in the liver tissue. From these and other tests, it also has been established that swine adipose tissue utilizes glucose for lipogenesis, and to be the major site of fatty acid synthesis. The data obtained from the tests using adipose tissue and glucose are set out in Table 1, as the percent inhibition of lipogenesis compared to the results obtained in the control tests wherein only the test compound was omitted.

sheep adipose tissue = test: inhibition of glucose incorporation into lipids in sheep adipose tissue slices; type: cell-based; conditions: 100 micrograms per milliliter, 2 hours
From the text: as §1
(§2) Described in more detail, the tests were conducted according to the following general procedure: […]
(§3) The incubation was terminated by addition of 0.25 milliliter of 1 N sulfuric acid. […] The extracts were washed according to Folch et al. (J. Biol. Chem., 226, 497-509, (1957)), air dried, and counted in a liquid scintillation counter with 15 milliliters of counting fluid (two parts toluene containing 0.4% w/v New England Nuclear Omnifluor: 1 part Triton X-100). […] From the data obtained was calculated the percent inhibition of lipid synthesis by the test compound in each case. […]

cat adipose tissue = test: inhibition of glucose utilization in cat adipose tissue slices; type: cell-based; conditions: 100 micrograms per milliliter, 2 hours, result in words
From the text: as §1, §2, §3

sheep liver = test: inhibition of glucose incorporation into lipids in sheep liver slices; type: cell-based; conditions: 100 micrograms per milliliter, 2 hours
From the text: as §1, §2, §3

rabbit adipose tissue = test: inhibition of glucose incorporation in rabbit adipose tissue slices; type: cell-based; conditions: 100 micrograms per milliliter, 2 hours
From the text: as §1, §2, §3

dog adipose tissue = test: inhibition of glucose utilization in dog adipose tissue slices; type: cell-based; conditions: 100 micrograms per milliliter, 2 hours
From the text: as §1, §2, §3

cat liver = test: inhibition of glucose utilization in cat liver slices; type: cell-based; conditions: 100 micrograms per milliliter, 2 hours
From the text: as §1, §2, §3

[1] = tested on: lipogenesis in swine adipose tissue; test: in vivo test of inhibition of lipogenesis in swine, compound in feed, adipose tissue biopsy samples; design: species or system pig (swine); conditions: young, growing pigs, in feed approximately 50 milligrams per kilogram per day for seven days
Method: The effect of compound 2 on inhibition of lipogenesis in swine was confirmed by an in vivo test in which Compound 2 was included in the feed given to young, growing pigs for seven days, at a dosage of approximately 50 milligrams of Compound 2 per kilogram of the pig's body weight per day. Adipose tissue biopsy samples were taken at days 0, 6, 7 and 13 (one week off the drug) and the effect of the test compound on lipogenesis was determined using tissue slices prepared from the biopsy samples, by the procedure used in the in vitro tests.

rabbit liver = test: inhibition of glucose incorporation in rabbit liver slices; type: cell-based; conditions: 100 micrograms per milliliter, 2 hours
From the text: as §1, §2, §3

Row | SMILES | inhibition at 100 µg/mL (swine adipose tissue) [%] | also measured
1 | C=CCNC(=O)C1CCc2cc(C)ccc2O1 (stereo not drawn) [Compound 9, 3,4-Dihydro-6-methyl-N-(2-propenyl)-2H-1-benzopyran-2-carboxamide] | 70 | –
2 | C=CCNC(=O)C1CCc2cc(C3CCCCC3)ccc2O1 (stereo not drawn) [Compound 5, 6-Cyclohexyl-3,4-dihydro-N-(2-propenyl)-2H-1-benzopyran-2-carboxamide] | 40 | –
3 | C=CCNC(=O)C1CCc2ccccc2O1 (stereo not drawn) [Compound 3, 3,4-Dihydro-N-(2-propenyl)-2H-1-benzopyran-2-carboxamide] | 72 | –
4 | C=CCNC(=O)C1CCc2cc(-c3ccccc3)ccc2O1 (stereo not drawn) [Compound 4, 3,4-Dihydro-6-phenyl-N-(2-propenyl)-2H-1-benzopyran-2-carboxamide] | 76 | –
5 | C=CCNC(=O)[C@@H]1C[C@H](O)c2cc(Cl)ccc2O1 (relative stereo) [Compound 7, 6-Chloro-4-hydroxy-N-(2-propenyl)-2H-1-benzopyran-2-carboxamide (cis)] | 55 | –
6 | C=CCNC(=O)C1CCc2cc(Cl)ccc2O1 (stereo not drawn) [Compound 1, 6-Chloro-3,4-dihydro-N-(2-propenyl)-2H-1-benzopyran-2-carboxamide] | 59 | –
7 | C=CCNC(=O)C1COc2ccc(Cl)cc2C1 (stereo not drawn) [Compound 6, 6-Chloro-3,4-dihydro-N-(2-propenyl)-2H-1-benzopyran-3-carboxamide] | 67 | –
8 | C=CCNC(=O)C1CCc2cc(Oc3ccccc3)ccc2O1 (stereo not drawn) [Compound 8, 3,4-Dihydro-6-phenoxy-N-(2-propenyl)-2H-1-benzopyran-2-carboxamide] | 64 | –
9 | C=CCNC(=O)C1COc2ccccc2C1 (stereo not drawn) [Compound 2, 3,4-Dihydro-N-(2-propenyl)-2H-1-benzopyran-3-carboxamide] | 83 | inhibition of glucose incorporation in adipose tissue (sheep adipose tissue): 36%; inhibition of glucose utilization in adipose tissue (cat adipose tissue): did not inhibit glucose utilization; inhibition of glucose incorporation in the liver (sheep liver): 32%; inhibition of glucose incorporation in adipose tissue (rabbit adipose tissue): 22%; inhibition of glucose utilization in adipose tissue (dog adipose tissue): 73%; inhibition of glucose utilization in the liver (cat liver): 26%; symptom of toxicity [1]: No symptom of toxicity due to the test compound was noted; effect on lipogenesis in vivo ([1]; day 13 (one week off the drug)): significantly reduced lipogenesis; inhibition of glucose incorporation into liver (rabbit liver): 9%
